What was measured:
Format in all cases: in vivo
Conditions in all cases: rated four to five weeks after treatment
CASSIA OBTUSIFOLIA, L. [1] = assay: Preemergence herbicidal evaluation, CASOB (Sicklepod)
Procedure, shortened: (§1)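 Preemergence soil spray, aqueous acetone, ~0.125–0.50 kg/ha; greenhouse, 4–5 wk; visual 0-9 rating vs untreated control (stand, vigor, malformation, size, chlorosis, appearance).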

CASSIA OBTUSIFOLIA, L. [2] = assay: Postemergence herbicidal evaluation, CASOB (Sicklepod)
Procedure, shortened: (§2)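 Compound is dispersed in 50/50 acetone/water containing 0.5% TWEEN®20 and sprayed at 40 psi onto seedlings about two weeks old, delivering about 0.125–0.500 kg/ha. Injury is scored 0–9 four to five weeks later.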

[3] = system: TRITICUM AESTIVUM, CV. APOLLO; assay: Preemergence herbicidal evaluation, TRZAWO (Wheat, Winter, CV. APOLLO)
Procedure, shortened: as §1

CHENOPODIUM ALBUM, L. [4] = assay: Preemergence herbicidal evaluation, CHEAL (Lambsquarters, Common)
Procedure, shortened: as §1

[5] = system: TRITICUM AESTIVUM, CV. APOLLO; assay: Postemergence herbicidal evaluation, TRZAWO (Wheat, Winter, CV. APOLLO)
Procedure, shortened: as §2

[6] = system: ECHINOCHLOA CRUS-GALLI, (L) BEAU; assay: Preemergence herbicidal evaluation, ECHCG (Barnyardgrass)
Procedure, shortened: as §1

[7] = system: AMBROSIA ARTEMISIIFOLIA, L.; assay: Postemergence herbicidal evaluation, AMBEL (Ragweed, Common)
Procedure: (§3) In the tests, seedling plants are grown in jiffy flats for about two weeks. The test compounds are dispersed in 50/50 acetone/water mixtures containing 0.5% TWEEN®20, a polyoxyethylene sorbitan monolaurate surfactant of Atlas Chemical Industries, in sufficient quantities to provide the equivalent of about 0.125 kg to 0.500 kg per hectare of active compound when applied to the plants through a spray nozzle operating at 40 psi for a predetermined time. After spraying, the plants are placed on greenhouse benches and are cared for in the usual manner, commensurate with conventional greenhouse practices. From four to five weeks after treatment, the seedling plants are examined and rated according to the rating system set forth below. Where more than one test is involved for a given compound, the data are averaged.
(§4) Results of herbicide evaluation are expressed on a rating scale (0-9). The scale is based upon a visual observation of plant stand, vigor, malformation, size, chlorosis and overall plant appearance as compared with a control.

[8] = system: ORYZA SATIVA, L. TEBONNET; assay: Preemergence herbicidal evaluation, ORYSAT (Rice, Tebonnet)
Procedure, shortened: as §1

[9] = system: ABUTILON THEOPHRASTI, MEDIC.; assay: Postemergence herbicidal evaluation, ABUTH (Velvetleaf)
Procedure: as §3, §4

CHENOPODIUM ALBUM, L. [10] = assay: Postemergence herbicidal evaluation, CHEAL (Lambsquarters, Common)
Procedure: as §3, §4

For `CC(C)OC(=O)Cn1c(=O)n(C)c(=O)n(-c2cc(N3C(=O)C4CSCCN4C3=O)c(F)cc2Cl)c1=O` (stereo not drawn) [Compound 12, Isopropyl 3-{2-chloro-4-fluoro-5-[5,6,8,8a-tetrahydro-1,3-dioxo-1H-imidazo[5,1c][1,4]-thiazin-2(3H)-yl]phenyl}tetrahydro-5-methyl-2,4,6-trioxo-s-triazine-1(2H)-acetate], the “Herbicide rating (0-9) CASOB” value (CASSIA OBTUSIFOLIA, L. [1]; 0.125 kg/ha) was 9.0, the “Herbicide rating (0-9) CASOB” value (CASSIA OBTUSIFOLIA, L. [1]; 0.250 kg/ha) was 9.0 and the “Herbicide rating (0-9) CASOB” value (CASSIA OBTUSIFOLIA, L. [1]; 0.500 kg/ha) was 9.0. For the same molecule, the “Herbicide rating (0-9) CASOB” value (CASSIA OBTUSIFOLIA, L. [2]; 0.125 kg/ha) was 9.0, the “Herbicide rating (0-9) CASOB” value (CASSIA OBTUSIFOLIA, L. [2]; 0.250 kg/ha) was 9.0 and the “Herbicide rating (0-9) CASOB” value (CASSIA OBTUSIFOLIA, L. [2]; 0.500 kg/ha) was 9.0. For the same molecule, the “Herbicide rating (0-9) TRZAWO” value ([3]; 0.125 kg/ha) was 0.0, the “Herbicide rating (0-9) TRZAWO” value ([3]; 0.250 kg/ha) was 0.0 and the “Herbicide rating (0-9) TRZAWO” value ([3]; 0.500 kg/ha) was 0.0. For the same molecule, the “Herbicide rating (0-9) CHEAL” value (CHENOPODIUM ALBUM, L. [4]; 0.125 kg/ha) was 9.0, the “Herbicide rating (0-9) CHEAL” value (CHENOPODIUM ALBUM, L. [4]; 0.250 kg/ha) was 9.0 and the “Herbicide rating (0-9) CHEAL” value (CHENOPODIUM ALBUM, L. [4]; 0.500 kg/ha) was 9.0. For the same molecule, the “Herbicide rating (0-9) TRZAWO” value ([5]; 0.125 kg/ha) was 2.5, the “Herbicide rating (0-9) TRZAWO” value ([5]; 0.250 kg/ha) was 2.5 and the “Herbicide rating (0-9) TRZAWO” value ([5]; 0.500 kg/ha) was 2.5. The “Herbicide rating (0-9) ECHCG” value ([6]; 0.125 kg/ha) was 0.0, the “Herbicide rating (0-9) ECHCG” value ([6]; 0.250 kg/ha) was 0.0 and the “Herbicide rating (0-9) ECHCG” value ([6]; 0.500 kg/ha) was 0.0. For the same molecule, the “Herbicide rating (0-9) AMBEL” value ([7]; 0.125 kg/ha) was 9.0, the “Herbicide rating (0-9) AMBEL” value ([7]; 0.250 kg/ha) was 9.0 and the “Herbicide rating (0-9) AMBEL” value ([7]; 0.500 kg/ha) was 9.0. The “Herbicide rating (0-9) ORYSAT” value ([8]; 0.125 kg/ha) was 0.0, the “Herbicide rating (0-9) ORYSAT” value ([8]; 0.250 kg/ha) was 0.0 and the “Herbicide rating (0-9) ORYSAT” value ([8]; 0.500 kg/ha) was 0.0. The “Herbicide rating (0-9) ABUTH” value ([9]; 0.125 kg/ha) was 9.0, the “Herbicide rating (0-9) ABUTH” value ([9]; 0.250 kg/ha) was 9.0 and the “Herbicide rating (0-9) ABUTH” value ([9]; 0.500 kg/ha) was 9.0. For the same molecule, the “Herbicide rating (0-9) CHEAL” value (CHENOPODIUM ALBUM, L. [10]; 0.125 kg/ha) was 9.0, the “Herbicide rating (0-9) CHEAL” value (CHENOPODIUM ALBUM, L. [10]; 0.250 kg/ha) was 9.0 and the “Herbicide rating (0-9) CHEAL” value (CHENOPODIUM ALBUM, L. [10]; 0.500 kg/ha) was 9.0.
